Assay results reported in ChEMBL document CHEMBL2073817 (J Pharmacol Exp Ther, 2002).

Legend:
[1] = molecular target: T1, OAT4 (Solute carrier family 22 member 11) (Homo sapiens, UniProt Q9NSA0); assay: TP_TRANSPORTER: inhibition of MTX uptake (MTX: 1 uM, Ibuprofen: 1000 uM) in OAT4-expressing S2 cells; assay type: functional, cell-based; parameters: scale not given: the % may be the effect or the level left; details: probe MTX, read-out: Activity
T1 sequence (Q9NSA0 whole entry): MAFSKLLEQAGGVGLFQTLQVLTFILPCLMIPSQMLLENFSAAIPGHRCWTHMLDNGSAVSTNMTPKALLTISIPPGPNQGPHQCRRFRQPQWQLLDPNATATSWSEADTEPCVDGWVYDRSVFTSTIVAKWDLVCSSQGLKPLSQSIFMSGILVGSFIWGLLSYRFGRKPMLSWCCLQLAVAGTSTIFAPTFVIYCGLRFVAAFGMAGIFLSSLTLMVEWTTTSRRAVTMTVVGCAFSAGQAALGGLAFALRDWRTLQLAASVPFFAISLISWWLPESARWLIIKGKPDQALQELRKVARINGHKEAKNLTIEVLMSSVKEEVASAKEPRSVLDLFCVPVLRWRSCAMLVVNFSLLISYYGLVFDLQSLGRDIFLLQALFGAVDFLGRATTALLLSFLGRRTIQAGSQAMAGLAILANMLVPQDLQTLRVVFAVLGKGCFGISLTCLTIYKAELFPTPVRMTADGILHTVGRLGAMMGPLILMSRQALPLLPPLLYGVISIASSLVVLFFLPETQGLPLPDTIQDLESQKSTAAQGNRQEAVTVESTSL

[2] = molecular target: T1, OAT4 (Solute carrier family 22 member 11); assay: TP_TRANSPORTER: inhibition of MTX uptake (MTX: 1 uM, Indomethacin: 500 uM) in OAT4-expressing S2 cells; assay type: functional, cell-based; parameters: scale not given: the % may be the effect or the level left; details: probe MTX, read-out: Activity
[3] = molecular target: T2, OAT1 (Solute carrier family 22 member 6) (Homo sapiens, UniProt Q4U2R8); assay: TP_TRANSPORTER: inhibition of MTX uptake (MTX: 1 uM, Indomethacin: 500 uM) in OAT1-expressing S2 cells; assay type: functional, cell-based; parameters: scale not given: the % may be the effect or the level left; details: mouse, probe MTX, read-out: Activity
T2 sequence (Q4U2R8 whole entry): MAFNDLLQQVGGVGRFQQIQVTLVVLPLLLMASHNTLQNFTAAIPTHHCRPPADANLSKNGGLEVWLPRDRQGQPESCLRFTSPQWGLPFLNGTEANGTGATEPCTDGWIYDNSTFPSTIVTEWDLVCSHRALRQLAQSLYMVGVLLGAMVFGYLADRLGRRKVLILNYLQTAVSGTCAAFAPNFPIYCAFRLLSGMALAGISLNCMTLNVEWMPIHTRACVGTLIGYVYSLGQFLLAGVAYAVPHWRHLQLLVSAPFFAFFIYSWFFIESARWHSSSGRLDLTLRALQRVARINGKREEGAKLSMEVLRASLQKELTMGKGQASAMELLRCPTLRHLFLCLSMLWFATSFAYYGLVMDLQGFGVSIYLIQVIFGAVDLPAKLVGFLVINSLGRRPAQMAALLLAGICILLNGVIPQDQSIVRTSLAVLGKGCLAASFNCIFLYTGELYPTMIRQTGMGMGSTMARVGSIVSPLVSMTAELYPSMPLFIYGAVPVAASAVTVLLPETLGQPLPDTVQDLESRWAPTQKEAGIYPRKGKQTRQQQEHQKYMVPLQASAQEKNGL

[4] = molecular target: T3, Organic anion transporter 3 (Homo sapiens, UniProt Q8TCC7); assay: TP_TRANSPORTER: inhibition of MTX uptake in OAT3-expressing S2 cells; assay type: functional, cell-based
T3 sequence (Q8TCC7 whole entry): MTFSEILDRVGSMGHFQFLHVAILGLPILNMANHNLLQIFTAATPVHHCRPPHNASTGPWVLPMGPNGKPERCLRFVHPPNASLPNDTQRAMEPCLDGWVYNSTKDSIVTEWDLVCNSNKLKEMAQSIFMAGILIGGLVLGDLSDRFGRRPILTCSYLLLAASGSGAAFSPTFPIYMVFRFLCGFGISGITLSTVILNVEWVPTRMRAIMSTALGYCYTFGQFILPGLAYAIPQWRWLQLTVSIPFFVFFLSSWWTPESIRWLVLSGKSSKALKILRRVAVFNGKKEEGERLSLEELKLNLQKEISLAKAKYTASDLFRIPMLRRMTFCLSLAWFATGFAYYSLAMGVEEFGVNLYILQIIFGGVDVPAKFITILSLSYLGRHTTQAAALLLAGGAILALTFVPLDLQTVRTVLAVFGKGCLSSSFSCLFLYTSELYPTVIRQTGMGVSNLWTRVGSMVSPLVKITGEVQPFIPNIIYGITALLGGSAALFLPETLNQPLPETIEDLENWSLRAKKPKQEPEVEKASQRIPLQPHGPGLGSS

[5] = molecular target: T2, OAT1 (Solute carrier family 22 member 6); assay: TP_TRANSPORTER: inhibition of MTX uptake (MTX: 1 uM, Ketoprofen: 1000 uM) in OAT1-expressing S2 cells; assay type: functional, cell-based; parameters: scale not given: the % may be the effect or the level left; details: probe MTX, read-out: Activity
[6] = molecular target: T1, OAT4 (Solute carrier family 22 member 11); assay: TP_TRANSPORTER: inhibition of MTX uptake (MTX: 1 uM, Ketoprofen: 1000 uM) in OAT4-expressing S2 cells; assay type: functional, cell-based; parameters: scale not given: the % may be the effect or the level left; details: mouse, probe MTX, read-out: Activity
[7] = molecular target: T1, OAT4 (Solute carrier family 22 member 11); assay: TP_TRANSPORTER: inhibition of MTX uptake (MTX: 1 uM, PCG: 1000 uM) in OAT4-expressing S2 cells; assay type: functional, cell-based; parameters: scale not given: the % may be the effect or the level left; details: mouse, probe MTX, read-out: Activity
[8] = molecular target: T1, OAT4 (Solute carrier family 22 member 11); assay: TP_TRANSPORTER: inhibition of MTX uptake (MTX: 1 uM, Phenylbutazone: 1000 uM) in OAT4-expressing S2 cells; assay type: functional, cell-based; parameters: scale not given: the % may be the effect or the level left; details: probe MTX, read-out: Activity
[9] = molecular target: T2, OAT1 (Solute carrier family 22 member 6); assay: TP_TRANSPORTER: inhibition of MTX uptake (MTX: 1 uM, Phenylbutazone: 1000 uM) in OAT1-expressing S2 cells; assay type: functional, cell-based; parameters: scale not given: the % may be the effect or the level left; details: probe MTX, read-out: Activity
[10] = molecular target: T1, OAT4 (Solute carrier family 22 member 11); assay: TP_TRANSPORTER: inhibition of MTX uptake (MTX: 1 uM, Piroxicam: 1000 uM) in OAT4-expressing S2 cells; assay type: functional, cell-based; parameters: scale not given: the % may be the effect or the level left; details: mouse, probe MTX, read-out: Activity
[11] = molecular target: T1, OAT4 (Solute carrier family 22 member 11); assay: TP_TRANSPORTER: inhibition of MTX uptake (MTX: 1 uM, Probenecid: 1000 uM) in OAT4-expressing S2 cells; assay type: functional, cell-based; parameters: scale not given: the % may be the effect or the level left; details: probe MTX, read-out: Activity
[12] = substrate: CN(Cc1cnc2nc(N)nc(N)c2n1)c1ccc(C(=O)N[C@@H](CCC(=O)O)C(=O)O)cc1; assay: TP_TRANSPORTER: uptake in OAT1-expressing S2 cells; assay type: functional, cell-based
[13] = substrate: CN(Cc1cnc2nc(N)nc(N)c2n1)c1ccc(C(=O)N[C@@H](CCC(=O)O)C(=O)O)cc1; assay: cells, lysate or membranes named

CC(C)Cc1ccc(C(C)C(=O)O)cc1 (centres undefined) [IBUPROFEN]
activity at 1000 µM [1]: 67.8%

COc1ccc2c(c1)c(CC(=O)O)c(C)n2C(=O)c1ccc(Cl)cc1 [INDOMETHACIN]
activity at 500 µM [2]: 60.9%
activity at 500 µM [3]: 60.6%
Ki [4]: 5.95 µM

CC(C(=O)O)c1cccc(C(=O)c2ccccc2)c1 (centres undefined) [KETOPROFEN]
activity at 1000 µM [5]: 53.4%
activity at 1000 µM [6]: 81%
Ki [4]: 1160 µM

CC1(C)S[C@@H]2[C@H](NC(=O)Cc3ccccc3)C(=O)N2[C@H]1C(=O)O [PENICILLIN G]
activity at 1000 µM [7]: 79.7%
Ki [4]: 97.6 µM

CCCCC1C(=O)N(c2ccccc2)N(c2ccccc2)C1=O [PHENYLBUTAZONE]
activity at 1000 µM [8]: 55.7%
activity at 1000 µM [9]: 30%
Ki [4]: 34.7 µM

CN1C(C(=O)Nc2ccccn2)=C(O)c2ccccc2S1(=O)=O [PIROXICAM]
activity at 1000 µM [10]: 62%
Ki [4]: 1200 µM

CCCN(CCC)S(=O)(=O)c1ccc(C(=O)O)cc1 [PROBENECID]
activity at 1000 µM [11]: 81.6%

O=C(O)c1ccccc1O [SALICYLIC ACID]
Ki [4]: 1020 µM

B1: Solute carrier family 22 member 11 (Homo sapiens) (protein)
chain: MAFSKLLEQAGGVGLFQTLQVLTFILPCLMIPSQMLLENFSAAIPGHRCWTHMLDNGSAVSTNMTPKALLTISIPPGPNQGPHQCRRFRQPQWQLLDPNATATSWSEADTEPCVDGWVYDRSVFTSTIVAKWDLVCSSQGLKPLSQSIFMSGILVGSFIWGLLSYRFGRKPMLSWCCLQLAVAGTSTIFAPTFVIYCGLRFVAAFGMAGIFLSSLTLMVEWTTTSRRAVTMTVVGCAFSAGQAALGGLAFALRDWRTLQLAASVPFFAISLISWWLPESARWLIIKGKPDQALQELRKVARINGHKEAKNLTIEVLMSSVKEEVASAKEPRSVLDLFCVPVLRWRSCAMLVVNFSLLISYYGLVFDLQSLGRDIFLLQALFGAVDFLGRATTALLLSFLGRRTIQAGSQAMAGLAILANMLVPQDLQTLRVVFAVLGKGCFGISLTCLTIYKAELFPTPVRMTADGILHTVGRLGAMMGPLILMSRQALPLLPPLLYGVISIASSLVVLFFLPETQGLPLPDTIQDLESQKSTAAQGNRQEAVTVESTSL
Km [12]: 17.8 µM

B2: Organic anion transporter 3 (Homo sapiens) (protein)
chain: MTFSEILDRVGSMGHFQFLHVAILGLPILNMANHNLLQIFTAATPVHHCRPPHNASTGPWVLPMGPNGKPERCLRFVHPPNASLPNDTQRAMEPCLDGWVYNSTKDSIVTEWDLVCNSNKLKEMAQSIFMAGILIGGLVLGDLSDRFGRRPILTCSYLLLAASGSGAAFSPTFPIYMVFRFLCGFGISGITLSTVILNVEWVPTRMRAIMSTALGYCYTFGQFILPGLAYAIPQWRWLQLTVSIPFFVFFLSSWWTPESIRWLVLSGKSSKALKILRRVAVFNGKKEEGERLSLEELKLNLQKEISLAKAKYTASDLFRIPMLRRMTFCLSLAWFATGFAYYSLAMGVEEFGVNLYILQIIFGGVDVPAKFITILSLSYLGRHTTQAAALLLAGGAILALTFVPLDLQTVRTVLAVFGKGCLSSSFSCLFLYTSELYPTVIRQTGMGVSNLWTRVGSMVSPLVKITGEVQPFIPNIIYGITALLGGSAALFLPETLNQPLPETIEDLENWSLRAKKPKQEPEVEKASQRIPLQPHGPGLGSS
Km [12]: 21.1 µM

B3: Solute carrier family 22 member 6 (Homo sapiens) (protein)
chain: MAFNDLLQQVGGVGRFQQIQVTLVVLPLLLMASHNTLQNFTAAIPTHHCRPPADANLSKNGGLEVWLPRDRQGQPESCLRFTSPQWGLPFLNGTEANGTGATEPCTDGWIYDNSTFPSTIVTEWDLVCSHRALRQLAQSLYMVGVLLGAMVFGYLADRLGRRKVLILNYLQTAVSGTCAAFAPNFPIYCAFRLLSGMALAGISLNCMTLNVEWMPIHTRACVGTLIGYVYSLGQFLLAGVAYAVPHWRHLQLLVSAPFFAFFIYSWFFIESARWHSSSGRLDLTLRALQRVARINGKREEGAKLSMEVLRASLQKELTMGKGQASAMELLRCPTLRHLFLCLSMLWFATSFAYYGLVMDLQGFGVSIYLIQVIFGAVDLPAKLVGFLVINSLGRRPAQMAALLLAGICILLNGVIPQDQSIVRTSLAVLGKGCLAASFNCIFLYTGELYPTMIRQTGMGMGSTMARVGSIVSPLVSMTAELYPSMPLFIYGAVPVAASAVTVLLPETLGQPLPDTVQDLESRWAPTQKEAGIYPRKGKQTRQQQEHQKYMVPLQASAQEKNGL
Km [13]: 554 µM
